Assay [1] addresses T1, HCV polymerase (NS5B) type 1a (Hepatitis C virus genotype 1a, UniProt P26664).
T1 construct: made in house; host or cells: Escherichia coli (by the 'similar method' of the 1b enzyme)
Put plainly: Assay of enzyme (HCV polymerase) inhibitory activity, type 1a enzyme. It counts as biochemical, HCV type 1a (cloned from the blood of patients). The method in brief:
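Reactions ran 60 min at 25° C in 20 mM Tris-HCl pH 7.5, 5 mM MgCl2, 50 mM NaCl, holding genotype 1a NS5B (1.5 μg/ml, Δ47 C-terminus, 6His), substrate RNA 5 μg/ml, UTP 2 μM with tritiated UTP and other NTPs 50 μM. IC50 derived from incorporated radiolabel in filter-trapped RNA relative to uninhibited reaction.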

In assay [2] the target is T2, HCV polymerase (NS5B) type 1b (Hepatitis C virus genotype 1b, UniProt P26663).
T2 construct: a region encoding NS5B (J Virol 1991 March, 65(3), 1105-13, 544 amino acids after deletion of 47 amino acids on the C-terminal); 6xHis (C); made in house; host or cells: Escherichia coli
The experiment in a line: Assay of enzyme (HCV polymerase) inhibitory activity, type 1b enzyme. The format is biochemical, HCV BK strain (type 1b). The method in brief: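 IC50 derived from [3H]UTP incorporation into TCA-insoluble RNA, compared with and without test compound. Reaction (25 °C, 60 min, Tris pH 7.5, 5 mM MgCl2): E. coli-expressed 1b NS5B Δ47 with His tag at 0.5 μg/ml, 5 μg/ml run-off substrate RNA, ATP/GTP/CTP 50 μM, UTP 2 μM.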

The mark [3] stands for this setting: HCV polymerase inhibitory activity (IC50), 1a, type 1a enzyme 1.5 μg/ml, 25° C., 60 min.
[4] abbreviates: HCV polymerase inhibitory activity (IC50), 1b, type 1b enzyme 0.5 μg/ml, 25° C., 60 min.
[5] abbreviates: HCV polymerase inhibitory activity IC50, 1a, type 1a enzyme.
[6] abbreviates: HCV polymerase inhibitory activity IC50, 1b, type 1b enzyme.

Bounds are passed on as bounds.

The IC50 is the concentration that inhibits the measured activity by half. Read a high IC50 as weaker potency.

In the case of `CCC(F)(F)c1ccc(CNC(=O)[C@H]2CN(C(=O)Nc3nnc(C(=O)N4CC[C@@H](O)C4)s3)CCN2S(=O)(=O)c2ccc(OC(F)(F)F)cc2)cc1` [Example 495, (R)-4-(4-trifluoromethoxy-benzenesulfonyl)-piperazine-1,3-dicarboxylic acid 3-[4-(1,1-difluoro-propyl)-benzylamide] 1-{[5-((R)-3-hydroxy-pyrrolidine-1-carbonyl)-[1,3,4]thiadiazol-2-yl]-amide}], the IC50 in assay [1] (setting [3]) was above 1000 nM; in assay [2] (setting [4]), 100 to 1000 nM.

`CC(=O)N1CCN(S(=O)(=O)c2ccc(OC(F)(F)F)cc2)[C@@H](C(=O)NCc2ccc(OC(F)(F)F)c(F)c2)C1` [Example 1103, (R)-4-acetyl-1-(4-trifluoromethoxy-benzenesulfonyl)-piperazine-2-carboxylic acid 3-fluoro-4-trifluoromethoxy-benzylamide]: the half-maximal inhibitory concentration (IC50) in assay [1] (setting [5]) and in assay [2] (setting [6]) was 100 to 1000 nM in each case.

For `O=C(NCc1ccc(OC(F)(F)F)cc1)[C@H]1CN(c2nc3c(=O)[nH]ncc3s2)CCN1S(=O)(=O)c1ccc(OC(F)(F)F)cc1` [Example 937, (R)-4-(4-oxo-4,5-dihydro-thiazolo[4,5-d]pyridazin-2-yl)-1-(4-trifluoromethoxy-benzenesulfonyl)-piperazine-2-carboxylic acid 4-trifluoromethoxy-benzylamide], the IC50 in assay [1] (setting [5]) and in assay [2] (setting [6]) was below 100 nM in each case.

With `CCCc1ccc(CNC(=O)[C@H]2CN(c3cnc4cncc(C(=O)O)c4n3)CCN2S(=O)(=O)c2ccc(Cl)s2)cc1` [Example 860, 2-[(R)-4-(5-chloro-thiophene-2-sulfonyl)-3-(4-propyl-benzylcarbamoyl)-piperazin-1-yl]-pyrido[3,4-b]pyrazine-8-carboxylic acid], the IC50 in assay [1] (setting [5]) and in assay [2] (setting [6]) was below 100 nM in each case.

For the compound `CCCc1ccc(CNC(=O)[C@H]2CN(c3nc(C)c(C(=O)O)s3)CCN2S(=O)(=O)c2ccc(OC(F)(F)F)c(CCC)c2)cc1` [Example 499, 4-methyl-2-[(R)-3-(4-propyl-benzylcarbamoyl)-4-(3-propyl-4-trifluoromethoxy-benzenesulfonyl)-piperazin-1-yl]-thiazole-5-carboxylic acid], the IC50 in assay [1] (setting [3]) and in assay [2] (setting [4]) was below 100 nM throughout.

For the compound `CC(C)c1ccc(CNC(=O)[C@H]2CN(C(=O)Cn3cccn3)CCN2S(=O)(=O)c2ccc(C(F)(F)F)cc2)cc1` [Example 228, (R)-4-(2-pyrazol-1-yl-acetyl)-1-(4-trifluoromethyl-benzenesulfonyl)-piperazine-2-carboxylic acid 4-isopropyl-benzylamide], the IC50 in assay [1] (setting [3]) and in assay [2] (setting [4]) was 100 to 1000 nM in each case.

For `CC(=O)N1CCN(S(=O)(=O)c2ccc(C(C)C)cc2)[C@@H](C(=O)NCc2ccc(C3(CO)CC3)cc2)C1` [Example 234, (R)-4-acetyl-1-(4-isopropyl-benzenesulfonyl)-piperazine-2-carboxylic acid 4-(1-hydroxymethyl-cyclopropyl)-benzylamide], the IC50 in assay [1] (setting [3]) and in assay [2] (setting [4]) was above 1000 nM each time.

Consider `CCCc1ccc(CNC(=O)[C@H]2CN(c3cc(C)c(C(N)=O)nn3)CCN2S(=O)(=O)c2ccc(OC(F)(F)F)cc2)cc1` [Example 494, 4-methyl-6-[(R)-3-(4-propyl-benzylcarbamoyl)-4-(4-trifluoromethoxy-benzenesulfonyl)-piperazin-1-yl]-pyridazine-3-carboxylic acid amide], for which the IC50 in assay [1] (setting [3]) and in assay [2] (setting [4]) was below 100 nM throughout.

Consider `CN1CCN(CC(=O)N2CCN(S(=O)(=O)c3ccc(I)cc3)[C@@H](C(=O)NCc3ccc(N(C)C)cc3)C2)CC1` [Example 346, 1-(4-iodo-benzenesulfonyl)-4-[2-(4-methyl-piperazin-1-yl)-acetyl]-piperazine-2-carboxylic acid 4-dimethylamino-benzylamide], for which the IC50 in assay [1] (setting [3]) and in assay [2] (setting [4]) was above 1000 nM each time.

With `CN(C)c1ccc(CNC(=O)C2CN(C(=O)Cc3ccccc3)CCN2S(=O)(=O)c2ccc(I)cc2)cc1` (centres unmarked) [Example 131, 1-(4-iodo-benzenesulfonyl)-4-phenylacetyl-piperazine-2-carboxylic acid 4-dimethylamino-benzylamide], the 50% inhibitory concentration (IC50) in assay [1] (setting [3]) is above 1000 nM; in assay [2] (setting [4]), 100 to 1000 nM.

For the compound `COC(=O)c1nc(Cl)c(N2CCN(S(=O)(=O)c3ccc(C(F)(F)F)cc3)[C@@H](C(=O)NCc3ccc(C(C)C)cc3)C2)nc1N` [Example 420, (R)-6′-amino-3′-chloro-3-(4-isopropyl-benzylcarbamoyl)-4-(4-trifluoromethyl-benzenesulfonyl)-3,4,5,6-tetrahydro-2H-[1,2′]bipyrazinyl-5′-carboxylic acid methyl ester], the half-maximal inhibitory concentration (IC50) in assay [1] (setting [3]) and in assay [2] (setting [4]) was above 1000 nM throughout.

Turning to `O=C(NCc1ccc(OC(F)(F)F)cc1)[C@H]1CN(c2cnc3cncnc3n2)CCN1S(=O)(=O)c1ccc(OC(F)(F)F)cc1` [Example 627, (R)-4-pteridin-7-yl-1-(4-trifluoromethoxy-benzenesulfonyl)-piperazine-2-carboxylic acid 4-trifluoromethoxy-benzylamide], the IC50 in assay [1] (setting [3]) and in assay [2] (setting [4]) was below 100 nM throughout.

For the compound `CC(=O)N1CCN(S(=O)(=O)c2ccc(C(C)C)cc2)C(C(=O)NCc2ccccc2)C1` (centres unmarked) [Example 49, 4-acetyl-1-(4-isopropyl-benzenesulfonyl)-piperazine-2-carboxylic acid benzylamide], the concentration for half-maximal inhibition (IC50) in assay [1] (setting [3]) and in assay [2] (setting [4]) was above 1000 nM in each case.

Regarding `O=C(NCc1ccc(OC(F)F)cc1)[C@H]1CN(c2nc3nc(Cl)ncc3s2)CCN1S(=O)(=O)c1ccc(C(F)(F)F)cc1` [Example 968, (R)-4-(5-chloro-thiazolo[4,5-d]pyrimidin-2-yl)-1-(4-trifluoromethyl-benzenesulfonyl)-piperazine-2-carboxylic acid 4-difluoromethoxy-benzylamide], the 50% inhibitory concentration (IC50) in assay [1] (setting [5]) and in assay [2] (setting [6]) was below 100 nM each time.

Take `CC(=O)N1CCN(S(=O)(=O)c2ccc(OC(F)(F)F)cc2)[C@@H](C(=O)NCc2ccc(C(C)(C)C#N)cc2)C1` [Example 641, (R)-4-acetyl-1-(4-trifluoromethoxy-benzenesulfonyl)-piperazine-2-carboxylic acid 4-(cyano-dimethyl-methyl)-benzylamide]: the half-inhibitory concentration (IC50) in assay [1] (setting [3]) and in assay [2] (setting [4]) was 100 to 1000 nM in each case.

Take `CC(=O)N1CCN(S(=O)(=O)c2ccc(C(C)C)cc2)C(C(=O)NCc2cccc(Cl)c2)C1` (centres unmarked) [Example 33, 4-acetyl-1-(4-isopropyl-benzenesulfonyl)-piperazine-2-carboxylic acid 3-chloro-benzylamide]: the IC50 in assay [1] (setting [3]) and in assay [2] (setting [4]) was above 1000 nM each time.

On to `CC(=O)N1CCN(S(=O)(=O)c2ccc(OC(F)(F)F)cc2)[C@@H](C(=O)NCc2ccc(-c3ccccn3)s2)C1` [Example 598, (R)-4-acetyl-1-(4-trifluoromethoxy-benzenesulfonyl)-piperazine-2-carboxylic acid (5-pyridin-2-yl-thiophen-2-ylmethyl)-amide], for which the IC50 in assay [1] (setting [3]) and in assay [2] (setting [4]) was 100 to 1000 nM in each case.

As for `O=C(NCc1ccc(OC(F)F)cc1F)[C@H]1CN(c2nc3ncncc3s2)CCN1S(=O)(=O)c1ccc(OC(F)(F)F)cc1` [Example 998, (R)-4-thiazolo[4,5-d]pyrimidin-2-yl-1-(4-trifluoromethoxy-benzenesulfonyl)-piperazine-2-carboxylic acid 4-difluoromethoxy-2-fluoro-benzylamide], the IC50 in assay [1] (setting [5]) and in assay [2] (setting [6]) was below 100 nM in each case.

In the case of `CC(C)(C)c1ccc(CNC(=O)[C@H]2CN(c3cnc(C(=O)O)cn3)CCN2S(=O)(=O)c2ccc(OC(F)(F)F)cc2)cc1` [Example 501, (R)-3-(4-tert-butyl-benzylcarbamoyl)-4-(4-trifluoromethoxy-benzenesulfonyl)-3,4,5,6-tetrahydro-2H-[1,2′]bipyrazinyl-5′-carboxylic acid], the half-maximal inhibitory concentration (IC50) in assay [1] (setting [3]) and in assay [2] (setting [4]) was below 100 nM throughout.

For the compound `CC(C)c1ccc(CNC(=O)[C@H]2CN(c3nccn3C)CCN2S(=O)(=O)c2ccc(C(F)(F)F)cc2)cc1` [Example 352, (R)-4-(1-methyl-1H-imidazol-2-yl)-1-(4-trifluoromethyl-benzenesulfonyl)-piperazine-2-carboxylic acid 4-isopropyl-benzylamide], the results for the IC50 in assay [1] (setting [3]) and in assay [2] (setting [4]) were above 1000 nM and 100 to 1000 nM, respectively.

In the case of `O=C(NCc1ccc(OC(F)(F)F)cc1)[C@H]1CN(c2ccc3nccnc3n2)CCN1S(=O)(=O)c1ccc(OC(F)(F)F)cc1` [Example 762, (R)-4-pyrido[2,3-b]pyrazin-6-yl-1-(4-trifluoromethoxy-benzenesulfonyl)-piperazine-2-carboxylic acid 4-trifluoromethoxy-benzylamide], the half-maximal inhibitory concentration (IC50) in assay [1] (setting [5]) and in assay [2] (setting [6]) was below 100 nM throughout.

As for `CCCn1cc(CNC(=O)[C@H]2CN(C(C)=O)CCN2S(=O)(=O)c2ccc(OC(F)(F)F)cc2)cn1` [Example 703, (R)-4-acetyl-1-(4-trifluoromethoxy-benzenesulfonyl)-piperazine-2-carboxylic acid (1-propyl-1H-pyrazol-4-ylmethyl)-amide], the IC50 in assay [1] (setting [5]) and in assay [2] (setting [6]) was above 1000 nM throughout.
